{"source": "patent US12065654B2", "about": "“Plants having increased tolerance to herbicides” (BASF SE, priority 2014, dated 2024)", "key": {"[1]": {"target": "T1, Arabidopsis HPPD (SEQ ID NO:53) (Arabidopsis thaliana, UniProt P93836)", "T1 construct": "His6 (N); made in house; host or cells: E. coli BL21 (DE3)", "T1 sequence (P93836 1-445)": "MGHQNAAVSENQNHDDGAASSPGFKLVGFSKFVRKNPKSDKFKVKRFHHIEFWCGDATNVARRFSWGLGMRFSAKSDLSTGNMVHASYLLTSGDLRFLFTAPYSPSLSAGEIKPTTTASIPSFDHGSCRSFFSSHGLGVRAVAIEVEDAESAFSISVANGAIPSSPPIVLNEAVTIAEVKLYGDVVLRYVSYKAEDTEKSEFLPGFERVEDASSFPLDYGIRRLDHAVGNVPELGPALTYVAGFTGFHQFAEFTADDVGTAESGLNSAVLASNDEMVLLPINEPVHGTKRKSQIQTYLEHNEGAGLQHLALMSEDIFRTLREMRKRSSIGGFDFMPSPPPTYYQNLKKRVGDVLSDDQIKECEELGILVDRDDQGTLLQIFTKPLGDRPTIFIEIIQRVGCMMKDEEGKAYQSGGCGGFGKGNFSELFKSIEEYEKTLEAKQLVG", "experiment": "HPPD activity assay (HPLC of homogentisic acid)", "assay_type": "biochemical", "conditions": "for Normalized tolerance index (TI): Arabidopsis HPPD variant Wild-type (reference, SEQ ID: 53); for TI (tolerance index): Arabidopsis HPPD, not normalized; for TI normalized to Arabidopsis HPPD: HPPD enzyme Arabidopsis (reference)", "method": "The activity assay for HPPD is based on the analysis of homogentisic acid by reversed phase HPLC.\nThe assay mixture can contain 150 mM potassium phosphate buffer pH 7.0, 50 mM L-ascorbic acid, 100 μM Catalase (Sigma-Aldrich), 1 μM FeSO4 and 0.2 units of purified HPPD enzyme in a total volume of 505 μl. 1 unit is defined as the amount of enzyme that is required to produce 1 nmol of HGA per minute at 20° C.\nThe reaction is allowed to proceed for 45 min at room temperature. The reaction is stopped by the addition of 50 μl of 4.5 M phosphoric acid. The sample is filtered using a […] pore size PVDF filtration device. 5 μl of the cleared sample is analyzed on an UPLC HSS T3 column (particle size 1.8 μm, dimensions 2, 1×50 mm; Waters) by isocratic elution using 90% 20 mM NaH2PO4 pH 2.2, 10% methanol (v/v).\nHGA is detected electrochemically at 750 mV (mode: DC; polarity: positive) and quantified by integrating peak areas (Empower software; Waters).\nInhibitors are dissolved in DMSO (dimethylsulfoxide) to a concentration of 0.5 mM. From this stock solution serial five-fold dilutions are prepared in DMSO, which are used in the assay. The respective inhibitor solution accounts for 1% of the assay volume. Thus, final inhibitor concentrations range from 5 μM to 320 pM, respectively. Activities are normalized by setting the uninhibited enzyme activity to 100%. IC50 values are calculated using non-linear regression.\nUsing methods which are described in the above examples or well known in the art, purified recombinant wild-type HPPD enzymes are characterized with respect to their kinetic properties and sensitivity towards HPPD inhibiting herbicides. Apparent michaelis constants (Km) and maximal reaction velocities (Vmax) are calculated by non-linear regression with the software GraphPad Prism 5 (GraphPad Software, La Jolla, USA) using a substrate inhibition model. […] Weighted means (by standard error) of Km and IC50 values are calculated from at least three independent experiments. The Cheng-Prusoff equation for competitive inhibition (Cheng, Y. C.; Prusoff, W. H. Biochem Pharmacol 1973, 22, 3099-3108) is used to calculate dissociation constants (Ki).\nField performance of the HPPD enzyme, which is used as a herbicide tolerance trait may depend not only on its lack of sensitivity towards HPPD inhibiting herbicides but also on its activity. To assess the potential performance of a herbicide tolerance trait a tolerance index (TI) is calculated using the following formula: […]\nEasy comparison and ranking of each trait is enabled by normalizing tolerance indexes on Arabidopsis wild-type HPPD."}, "[2]": {"target": "T2, Hordeum HPPD (SEQ ID NO:2) (Hordeum vulgare, UniProt O48604, A164G/R146V/R147D/R148G)", "T2 construct": "His-tag (N); made in house; host or cells: E. coli BL21 (DE3)", "T2 sequence (O48604 whole entry R146V/R147D/R148G/A164G)": "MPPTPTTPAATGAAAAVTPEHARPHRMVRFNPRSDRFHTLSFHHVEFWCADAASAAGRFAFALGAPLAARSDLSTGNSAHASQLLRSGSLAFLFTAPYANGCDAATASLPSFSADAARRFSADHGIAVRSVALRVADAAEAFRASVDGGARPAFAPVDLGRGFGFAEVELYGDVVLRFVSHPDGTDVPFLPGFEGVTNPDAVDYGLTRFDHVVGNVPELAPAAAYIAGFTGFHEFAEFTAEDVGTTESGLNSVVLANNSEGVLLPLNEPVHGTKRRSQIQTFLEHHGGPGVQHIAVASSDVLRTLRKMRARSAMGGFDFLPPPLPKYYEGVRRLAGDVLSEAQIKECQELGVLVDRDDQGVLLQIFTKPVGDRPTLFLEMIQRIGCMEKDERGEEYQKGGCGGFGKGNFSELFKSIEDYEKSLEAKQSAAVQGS", "experiment": "HPPD activity assay", "assay_type": "biochemical", "conditions": "HPPD enzyme Hordeum"}, "[3]": {"tested_on": "Arabidopsis wild-type control", "experiment": "Germination assay in 48-well plates", "assay_type": "in vivo, Arabidopsis thaliana", "conditions": "plant growth IC50 ratio to wildtype, mean of 5 T2 events", "method": "(§1) Depending on the species, the plants are kept at 10-25° C. or 20-35° C. The test period extends over 3 weeks. During this time, the plants are tended and their response to the individual treatments is evaluated. Herbicide injury evaluations are taken at 2 and 3 weeks after treatment. Plant injury is rated on a scale of 0 to 9, 0 being no injury and 9 being complete death. Tolerance to HPPD-inhibiting, preferably pyrazolone, isoxazole, or triketone derivative herbicides can also be assessed in Arabidopsis. In this case transgenic Arabidopsis thaliana plants are assayed for improved tolerance to HPPD-inhibiting, preferably pyrazolone, isoxazole, or triketone derivative herbicides in 48-well plates. Seeds are surface sterilized by stirring for 5 min in ethanol+water (70+30 by volume), rinsing one time with ethanol+water (70+30 by volume) and two times with a sterile, deionized water. The seeds are resuspended in 0.1% agar dissolved in water (w/v). Four to five seeds per well are plated on solid nutrient medium consisting of half-strength Murashige Skoog nutrient solution, pH 5.8 (Murashige and Skoog (1962) Physiologia Plantarum 15: 473-497). Compounds are dissolved in dimethylsulfoxid (DMSO) and added to the medium prior solidification (final DMSO concentration 0.1%). Multi well plates are incubated in a growth chamber at 22° C., 75% relative humidity and 110 μmol Phot*m−2*s−1 with 14:10 h light:dark photoperiod. Seven to ten days after seeding growth inhibition is evaluated by comparison to wild type plants. Tolerance factor is calculated by dividing the plant growth IC50 value of transgenic plants containing a HPPD and/or HST sequence by that of wildtype plants."}, "[4]": {"tested_on": "Arabidopsis overexpression line Synechocystis HPPD", "experiment": "Germination assay in 48-well plates", "assay_type": "in vivo, Arabidopsis thaliana", "conditions": "IC50 transgenic / wildtype, mean of 5 T2 events", "method": "as §1"}, "[5]": {"tested_on": "Arabidopsis overexpression line Arabidopsis HPPD", "experiment": "Germination assay in 48-well plates", "assay_type": "in vivo, Arabidopsis thaliana", "conditions": "plant growth IC50 transgenic / wildtype, mean of 5 T2 events", "method": "as §1"}}}
{"compound": "Cc1c(C(=O)c2cnn(C)c2O)ccc(S(C)(=O)=O)c1C1=NOCC1", "note": "[Inhibitor 1, [3-(4,5-dihydroisoxazol-3-yl)-2-methyl-4-methylsulfonyl-phenyl]-(5-hydroxy-1-methyl-pyrazol-4-yl)methanone]", "values": [{"measurement": "Normalized tolerance index (TI)", "setting": "[1]", "value": 1}, {"measurement": "TI (tolerance index)", "setting": "[1]", "value": "9.5E−4"}, {"measurement": "TI normalized to Arabidopsis HPPD", "setting": "[1]", "value": 1}, {"measurement": "TI normalized to Arabidopsis HPPD", "setting": "[2]", "value": 3.7}, {"measurement": "Tolerance factor", "setting": "[3]", "value": 1}, {"measurement": "Tolerance factor", "setting": "[4]", "value": 7.5}, {"measurement": "Tolerance factor", "setting": "[5]", "value": 9}]}
{"compound": "CS(=O)(=O)c1ccc(C(=O)C2C(=O)CCCC2=O)c([N+](=O)[O-])c1", "note": "[Inhibitor 2, 2-(4-methylsulfonyl-2-nitro-benzoyl)cyclohexane-1,3-dione]", "values": [{"measurement": "Ki", "setting": "[1]", "value": 36, "unit": "nM"}, {"measurement": "Normalized tolerance index (TI)", "setting": "[1]", "value": 1}, {"measurement": "TI (tolerance index)", "setting": "[1]", "value": "3.6E−2"}, {"measurement": "TI normalized to Arabidopsis HPPD", "setting": "[1]", "value": 1}, {"measurement": "TI normalized to Arabidopsis HPPD", "setting": "[2]", "value": 0.9}, {"measurement": "Tolerance factor", "setting": "[3]", "value": 1}, {"measurement": "Tolerance factor", "setting": "[4]", "value": 10}, {"measurement": "Tolerance factor", "setting": "[5]", "value": 10}]}
{"compound": "COCCOCc1nc(C(F)(F)F)ccc1C(=O)C1=C(O)C2CCC(C2)C1=O", "note": "(stereo not drawn) [Inhibitor 3, 2-hydroxy-3-[2-(2-methoxyethoxymethyl)-6-(trifluoromethyl)pyridine-3-carbonyl]bicyclo[3.2.1]oct-2-en-4-one]", "values": [{"measurement": "Normalized tolerance index (TI)", "setting": "[1]", "value": 1}, {"measurement": "TI normalized to Arabidopsis HPPD", "setting": "[1]", "value": 1}, {"measurement": "TI normalized to Arabidopsis HPPD", "setting": "[2]", "value": 0.2}]}
{"compound": "CS(=O)(=O)c1ccc(C(=O)C2C(=O)CCCC2=O)c(Cl)c1COCC(F)(F)F", "note": "[Inhibitor 4, 2-[2-chloro-4-methylsulfonyl-3-(2,2,2-trifluoroethoxymethyl)benzoyl]cyclohexane-1,3-dione]", "values": [{"measurement": "Normalized tolerance index (TI)", "setting": "[1]", "value": 1}, {"measurement": "TI normalized to Arabidopsis HPPD", "setting": "[1]", "value": 1}, {"measurement": "TI normalized to Arabidopsis HPPD", "setting": "[2]", "value": 0.1}]}
